Experiment [1] deals with T1, Recombinant IKKβ (Homo sapiens, UniProt O14920).
T1 construct: purchased Millipore, Dundee, UK
T1 sequence (O14920 1-756): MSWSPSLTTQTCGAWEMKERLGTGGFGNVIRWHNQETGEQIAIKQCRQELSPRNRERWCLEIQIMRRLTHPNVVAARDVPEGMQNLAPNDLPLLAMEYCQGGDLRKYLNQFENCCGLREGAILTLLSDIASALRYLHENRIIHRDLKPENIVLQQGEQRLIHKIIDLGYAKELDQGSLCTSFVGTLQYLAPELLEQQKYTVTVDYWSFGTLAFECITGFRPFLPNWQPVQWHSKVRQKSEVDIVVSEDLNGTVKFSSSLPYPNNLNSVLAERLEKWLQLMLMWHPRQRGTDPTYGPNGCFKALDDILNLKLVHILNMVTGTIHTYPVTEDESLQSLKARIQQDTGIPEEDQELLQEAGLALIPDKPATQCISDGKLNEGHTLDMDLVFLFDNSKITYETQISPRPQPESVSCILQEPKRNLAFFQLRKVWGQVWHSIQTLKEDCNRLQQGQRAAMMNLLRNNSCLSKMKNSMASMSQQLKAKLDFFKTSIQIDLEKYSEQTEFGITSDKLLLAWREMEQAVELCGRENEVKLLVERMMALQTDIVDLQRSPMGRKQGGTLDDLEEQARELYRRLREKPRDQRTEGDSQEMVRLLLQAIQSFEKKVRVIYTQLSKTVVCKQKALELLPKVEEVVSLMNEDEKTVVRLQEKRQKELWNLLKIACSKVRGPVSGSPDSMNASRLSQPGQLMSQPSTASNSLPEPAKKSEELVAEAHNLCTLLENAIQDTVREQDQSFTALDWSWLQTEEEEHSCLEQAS
The experiment can be described thus: DELFIA IKKβ kinase assay (apparent Ki, Cheng-Prusoff). It counts as biochemical. As to conditions: non-italicised figure: DELFIA assay. In a few lines:
(§1)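 Recombinant IKKα or IKKβ (37 nM) with 0.375 μM biotinylated IκB-α (Ser32) peptide and 40 μM ATP in 40 mM Tris-HCl pH 7.5, 20 mM MgCl2, 60 min at 30° C. Phospho-substrate captured on streptavidin and detected by anti-phospho-IκB-α plus europium anti-mouse IgG time-resolved fluorescence; apparent Ki via Cheng-Prusoff.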

In experiment [2] the target is T2, Recombinant IKKα (Homo sapiens, UniProt O15111).
T2 construct: purchased Millipore, Dundee, UK
T2 sequence (O15111 1-745): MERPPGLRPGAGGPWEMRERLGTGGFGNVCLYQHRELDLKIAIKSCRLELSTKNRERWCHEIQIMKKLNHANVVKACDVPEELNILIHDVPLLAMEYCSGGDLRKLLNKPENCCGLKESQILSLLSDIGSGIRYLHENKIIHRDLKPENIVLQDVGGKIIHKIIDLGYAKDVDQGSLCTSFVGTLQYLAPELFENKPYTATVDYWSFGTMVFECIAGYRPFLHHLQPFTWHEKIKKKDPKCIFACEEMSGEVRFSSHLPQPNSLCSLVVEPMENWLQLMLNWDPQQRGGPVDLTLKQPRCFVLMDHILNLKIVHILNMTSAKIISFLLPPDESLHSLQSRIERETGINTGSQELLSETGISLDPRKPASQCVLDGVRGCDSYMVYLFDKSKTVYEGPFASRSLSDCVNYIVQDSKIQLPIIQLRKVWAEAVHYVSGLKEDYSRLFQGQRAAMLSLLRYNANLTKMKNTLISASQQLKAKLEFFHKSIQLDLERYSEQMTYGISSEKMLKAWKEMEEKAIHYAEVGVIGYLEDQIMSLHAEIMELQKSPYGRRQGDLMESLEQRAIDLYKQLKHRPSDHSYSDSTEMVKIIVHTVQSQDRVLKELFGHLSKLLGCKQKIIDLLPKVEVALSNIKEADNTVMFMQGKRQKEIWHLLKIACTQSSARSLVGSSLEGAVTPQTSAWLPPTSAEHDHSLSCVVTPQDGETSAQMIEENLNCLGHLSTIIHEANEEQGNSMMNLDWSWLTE
The experiment in a line: DELFIA IKKα kinase assay (apparent Ki, Cheng-Prusoff). Format: biochemical. As to conditions: non-italicised figure: DELFIA assay. In a few lines:
as §1

SMILES strings stand for the structures. pKi: −log10 of the molar value.

For the molecule `Nc1n[nH]c2ccc(-c3ccnc(NC(=O)Nc4cccc(Oc5ccccc5)c4)c3)cc12` [Example 56, 1-(4-(3-Amino-1H-indazol-5-yl)pyridin-2-yl)-3-(3-phenoxyphenyl)urea], the figures for the pKi in experiment [1] and in experiment [2] were 5.46 and 6.63, respectively.
Turning to `Nc1n[nH]c2ccc(-c3ccnc(NC(=O)Nc4cccc(OCc5ccccc5)c4)c3)cc12` [Example 57, 1-(4-(3-Amino-1H-indazol-5yl)pyridin-2-yl)-3-(3-(benzyloxy)phenyl)urea], the negative-log Ki (pKi) was 5.38 in experiment [1] and 7.42 in experiment [2].
For `Nc1n[nH]c2ccc(-c3ccnc(NC(=O)Nc4cccc(OCc5ccc(F)cc5)c4)c3)cc12` [Example 58, 1-(4-(3-Amino-1H-indazol-5-yl)pyridin2-yl)-3-(3-((4-fluorobenzyl)oxy)phenyl)urea], the pKi in experiment [1] was 5.71; in experiment [2], 7.10.
The corresponding values for `Nc1n[nH]c2ccc(-c3ccnc(NC(=O)Nc4cccc(OCc5cccc(F)c5)c4)c3)cc12` [Example 59, 1-(4-(3-Amino-1H-indazol-5-yl)pyridin-2-yl)-3-(3-((3-fIuorobenzyl)oxy)phenyl)urea] are 5.75 and 7.03.
The corresponding values for `Nc1n[nH]c2ccc(-c3ccnc(NC(=O)Nc4cccc(OCc5ccccc5F)c4)c3)cc12` [Example 60, 1-(4-(3-Amino-1H-indazol-5-yl)pyridin-2-yl)-3-(3-((2-fluorobenzyl)oxy)phenyl)urea] are 5.61 and 7.12.
The corresponding values for `Nc1n[nH]c2ccc(-c3ccnc(NC(=O)Nc4cccc(C(=O)Nc5ccccc5)c4)c3)cc12` [Example 61, 3-(3-(4-(3-Amino-1H-indazol-5-yl)pyridine-2-yl)ureido)-N-phenylbenzamide] are 6.38 and 6.77.
As for `Nc1n[nH]c2ccc(-c3ccnc(NC(=O)Nc4ccc(F)cc4)c3)cc12` [Example 62, 1-(4-(3-Amino-1H-indazol-5-yl)pyridine-2-yl)-3-(4-fluorophenyl)urea], the results for the negative-log Ki (pKi) in experiment [1] and in experiment [2] were 6.94 and 7.66, respectively.
As to `Nc1n[nH]c2ccc(-c3ccnc(NC(=O)Nc4ccc(Cl)cc4)c3)cc12` [Example 63], the values for the negative logarithm of the Ki (pKi) in experiment [1] and in experiment [2] were 5.76 and 7.32, respectively.
With `CC(C)(C)c1ccc(NC(=O)Nc2cc(-c3ccc4[nH]nc(N)c4c3)ccn2)cc1` [Example 64, 1-(4-(3-Amino-1H-indazol-5-yl)pyridin-2-yl)-3-(4-(tert-butyl)phenyl)urea], the results for the pKi in experiment [1] and in experiment [2] were 5.54 and 7.12, respectively.
On to `CS(=O)(=O)c1ccc(NC(=O)Nc2cc(-c3ccc4[nH]nc(N)c4c3)ccn2)cc1` [Example 65, 1-(4-(3-Amino-1H-indazol-5-yl)pyridin-2-yl)-3-(4-(methylsulfonyl)phenyl)urea], for which the pKi in experiment [1] was 6.38; in experiment [2], 7.57.
In the same order, the values of `Cc1ccccc1NC(=O)Nc1cc(-c2ccc3[nH]nc(N)c3c2)ccn1` [Example 66, 1-(4-(3-Amino-1H-indazol-5-yl)pyridin-2-yl)-3-(o-tolyl)urea] are 5.98 and 7.34.
Regarding `CCc1ccccc1NC(=O)Nc1cc(-c2ccc3[nH]nc(N)c3c2)ccn1` [Example 67, 1-(4-(3-Amino-1H-indazol-5-yl)pyridin-2-yl)-3-(2-ethylphenyl)urea], the pKi is 5.38 in experiment [1] and 6.52 in experiment [2].
With `CC(C)c1ccccc1NC(=O)Nc1cc(-c2ccc3[nH]nc(N)c3c2)ccn1` [Example 68, 1-(4-(3-Amino-1H-indazol-5-yl)pyridin-2-yl)-3-(2-isopropylphenyl)urea], the pKi in experiment [1] is 5.72; in experiment [2], 7.00.
Regarding `Nc1n[nH]c2ccc(-c3ccnc(NC(=O)Nc4cccnc4)c3)cc12` [Example 69, 1-(4-(3-Amino-1H-indazol-5-yl)pyridin-2-yl)-3-(pyridin-3-yl)urea], the values for the negative logarithm of the Ki (pKi) in experiment [1] and in experiment [2] were 5.92 and 7.38, respectively.

Broadly, the pKi is the Ki on a negative log10 scale, so that one unit is a factor of ten.

These data come from US20250304576A1 (Cancer Research Technology Limited, priority 2022, published 2025).
